Assay results as given in patent publication US8236854B2, “Lipid-improving agent and composition containing lipid-improving agent” (Suntory Holdings Limited, priority 2003, dated 2012).
Marks after values point to notes of the source that are not given here.

How the values were obtained:
Format in all cases: in vivo, rat
Male rats of SD strain [1] = test: Serum lipid lowering action of structured lipids in high-fat food, two weeks (Example 6); conditions: High-TG Food (20% fat) with 7.5% structured lipid, 2 weeks
Description: Influence of arachidonic acid chemically synthesized in Example 2 on serum lipid lowering action of the constituting fatty acid was investigated in a high-fat foods.
Male rats of SD strain of 5 weeks age were divided into eight groups each comprising five rats, acclimatized for one week with a standard solid feed and ingested for two weeks with the experimental food as shown in Table 7 and Table 8 (normal, high-TG, 7.5% PPP, 7.5% PAP, 7.5% PPA, 7.5% 8P8, 7.5% 8A8 and 7.5% 88A). Incidentally, the condition for a high-fat food was that the rate of fat/oil in the feed was made 20%, beef tallow abundant in saturated fatty acid was used as a base and 2% of corn oil were compounded to avoid the deficiency of essential fatty acids. In the control group, an experimental food (high-TG food, 20% fat/oil food) compounded with 18% of […] (20% as a result of addition of 2% of corn oil) was used.

PPARα mRNA of liver = test: Influence of structured lipid on liver PPARα mRNA expression (Example 5); conditions: rats, 10% PAP food, 2 weeks
Description: (§1) Influence of the structured lipid where arachidonic acid chemically synthesized in Example 2 as a constituting fatty acid on expression of lipid metabolism-related gene was investigated using rats.
(§2) Male rats of SD strain of 5 weeks age were divided into four groups each comprising five rats, acclimatized for one week with a standard solid feed and ingested for two weeks with an experimental food (10% PPA and 10% PAP; Table 5) compounded with 10% of arachidonic acid-containing structured lipid (PPA or PAP). In the control group, an experimental food (10% PPP) compounded with 10% of PPP was used. In ingestion of the food, a pair-feeding was conducted and body weight was measured every day.
Two molecules of palmitic acid and one molecule of 2-AG incorporated into epidermal cells of small intestine are reconstructed to a triglyceride(s) (in that case, although there is a possibility of bonding of other inherent fatty acids existing in the epidermal cells of the small intestine to 1,3-positions, arachidonic acid bonded to 2-position is retained), incorporated into chylomicron, transferred to peripheral tissues together with secretion of lymph and blood flow and finally incorporated into liver.

Male rats of SD strain [2] = test: Ingestion of experimental food with 10% structured lipid for two weeks: body weight, liver weight, serum lipid concentration (Example 5); conditions: 10% structured lipid in experimental food, 2 weeks
Description: as §1, §2

[3] = test system: target gene of PPAR of jejunum; test: Influence of structured lipid on expression of target gene of PPAR of jejunum (Example 5); conditions: rats, 10% structured lipid food, compared with PPP food control group
Description: as §1, §2
Influence of structured lipid on expression of target gene of PPAR of jejunum is shown (FIG. 4). From PPA, each one molecule of palmitic acid and arachidonic acid is dissociated and absorbed by the action of pancreatic lipase specific to 1,3-positions and arachidonic acid having a particularly strong PPAR ligand activity acts as a PPARα ligand in small intestine and, therefore, expressed amount of target gene of PPAR increased in a group of 10% PPA food as compared with a PPP food group which is a control group. […]

Row | SMILES | Serum Total Cholesterol Concn (Male rats of SD strain [1]) | Serum Triglyceride(s) Concn (Male rats of SD strain [1]) | Expressed amount of PPARα mRNA of liver (PPARα mRNA of liver) | Serum Total Cholesterol Concn (Male rats of SD strain [2]) | Serum Triglyceride(s) Concn (Male rats of SD strain [2]) | Expressed amount of target gene of PPAR in jejunum [3]
1 | CCCCC/C=C\C/C=C\C/C=C\C/C=C\CCCC(=O)OC(COC(=O)CCCCCCC)COC(=O)CCCCCCC [8A8, 1,3-dioctanoyl-2-arachidonoyl glyceride] | 85.6 ± 2.5^b μmol/dl | 63.3 ± 4.1^a μmol/dl | – | – | – | –
2 | CCCCCCCCCCCCCCCC(=O)OC(COC(=O)CCCCCCC)COC(=O)CCCCCCC [8P8, 1,3-capryloyl-2-palmitoyl-glyceride, reference compound] | 99.7 ± 4.2^b μmol/dl | 101.8 ± 5.3^b μmol/dl | – | – | – | –
3 | CCCCC/C=C\C/C=C\C/C=C\C/C=C\CCCC(=O)OCC(COC(=O)CCCCCCC)OC(=O)CCCCCCC (centres unmarked) [88A, 1(3),2-dioctanoyl-3(1)-arachidonoyl glyceride] | 92.9 ± 2.9^a μmol/dl | 83.1 ± 3.6^a μmol/dl | – | – | – | –
4 | CCCCC/C=C\C/C=C\C/C=C\C/C=C\CCCC(=O)OC(COC(=O)CCCCCCCCCCCCCCC)COC(=O)CCCCCCCCCCCCCCC [PAP, 1,3-dipalmitoyl-2-arachidonoyl glyceride] | 91.7 ± 3.3^a μmol/dl | 80.4 ± 3.9^a μmol/dl | significantly increased | 178 ± 15.3^ab μmol/dl | 174 ± 7.5^b μmol/dl | –
5 | CCCCC/C=C\C/C=C\C/C=C\C/C=C\CCCC(=O)OCC(COC(=O)CCCCCCCCCCCCCCC)OC(=O)CCCCCCCCCCCCCCC (centres unmarked) [PPA, 1(3),2-dipalmitoyl-3(1)-arachidonoyl glyceride] | 92.4 ± 4.9^a μmol/dl | 93.1 ± 1.3^a μmol/dl | – | 150 ± 16.6^b μmol/dl | 173 ± 6.6^b μmol/dl | increased
6 | CCCCCCCCCCCCCCCC(=O)OCC(COC(=O)CCCCCCCCCCCCCCC)OC(=O)CCCCCCCCCCCCCCC [PPP, reference compound] | 104.3 ± 5.9^b μmol/dl | 109.2 ± 6.8^b μmol/dl | – | 201 ± 9.2^a μmol/dl | 316 ± 64.3^b μmol/dl | –
